In patent US11547697B2, “Heterocyclic compounds and uses thereof” (MILLENNIUM PHARMACEUTICALS, INC., priority 2009, dated 2023):
Like-named read-outs stand apart in the source and are kept apart here. Values belong to the molecule of their own block, whether it stands above or below them.

Tests used:
Type in all cases: biochemical
[1] = molecular target: p110α/p85α (Homo sapiens (Human), UniProt P42336); experiment: PI 3-Kinase (human) HTRF assay, p110α/p85α
[2] = molecular target: p110β/p85α (Homo sapiens (Human), UniProt P42338); experiment: PI 3-Kinase (human) HTRF assay, p110β/p85α
[3] = molecular target: p110γ (Homo sapiens (Human), UniProt P48736); experiment: PI 3-Kinase (human) HTRF assay, p110γ
[4] = in vitro, read-out: PI3K α IC50
[5] = in vitro, read-out: PI3K β IC50
[6] = in vitro, read-out: PI3K γ IC50

p110γ, sequence (P48736 whole entry): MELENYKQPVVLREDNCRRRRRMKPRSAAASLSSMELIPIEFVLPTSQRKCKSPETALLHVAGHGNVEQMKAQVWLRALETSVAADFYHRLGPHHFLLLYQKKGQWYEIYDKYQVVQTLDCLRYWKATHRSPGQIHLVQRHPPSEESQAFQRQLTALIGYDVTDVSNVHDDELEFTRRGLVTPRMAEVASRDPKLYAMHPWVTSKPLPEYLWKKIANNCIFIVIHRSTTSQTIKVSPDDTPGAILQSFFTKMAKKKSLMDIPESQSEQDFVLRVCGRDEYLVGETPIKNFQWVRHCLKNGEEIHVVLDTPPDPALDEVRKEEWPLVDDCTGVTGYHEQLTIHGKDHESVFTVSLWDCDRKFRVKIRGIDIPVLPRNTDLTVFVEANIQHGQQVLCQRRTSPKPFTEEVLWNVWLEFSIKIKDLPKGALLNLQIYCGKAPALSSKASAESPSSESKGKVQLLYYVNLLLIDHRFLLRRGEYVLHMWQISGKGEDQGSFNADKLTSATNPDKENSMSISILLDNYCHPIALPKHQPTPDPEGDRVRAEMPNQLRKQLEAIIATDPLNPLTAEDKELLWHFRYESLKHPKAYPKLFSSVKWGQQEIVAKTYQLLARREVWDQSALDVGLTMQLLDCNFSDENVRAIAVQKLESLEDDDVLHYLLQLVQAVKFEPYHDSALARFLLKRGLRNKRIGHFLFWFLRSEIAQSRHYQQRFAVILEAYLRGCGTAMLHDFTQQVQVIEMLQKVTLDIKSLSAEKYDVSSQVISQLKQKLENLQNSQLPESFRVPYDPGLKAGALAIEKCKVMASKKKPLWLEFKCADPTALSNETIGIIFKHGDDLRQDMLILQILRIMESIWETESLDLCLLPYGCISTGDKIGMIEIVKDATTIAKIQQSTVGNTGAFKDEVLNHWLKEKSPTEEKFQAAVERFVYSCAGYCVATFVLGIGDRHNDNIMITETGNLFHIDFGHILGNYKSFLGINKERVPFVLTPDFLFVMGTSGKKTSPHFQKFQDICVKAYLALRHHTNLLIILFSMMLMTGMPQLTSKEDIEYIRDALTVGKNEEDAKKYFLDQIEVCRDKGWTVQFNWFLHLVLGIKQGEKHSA
p110β/p85α, sequence (P42338 whole entry): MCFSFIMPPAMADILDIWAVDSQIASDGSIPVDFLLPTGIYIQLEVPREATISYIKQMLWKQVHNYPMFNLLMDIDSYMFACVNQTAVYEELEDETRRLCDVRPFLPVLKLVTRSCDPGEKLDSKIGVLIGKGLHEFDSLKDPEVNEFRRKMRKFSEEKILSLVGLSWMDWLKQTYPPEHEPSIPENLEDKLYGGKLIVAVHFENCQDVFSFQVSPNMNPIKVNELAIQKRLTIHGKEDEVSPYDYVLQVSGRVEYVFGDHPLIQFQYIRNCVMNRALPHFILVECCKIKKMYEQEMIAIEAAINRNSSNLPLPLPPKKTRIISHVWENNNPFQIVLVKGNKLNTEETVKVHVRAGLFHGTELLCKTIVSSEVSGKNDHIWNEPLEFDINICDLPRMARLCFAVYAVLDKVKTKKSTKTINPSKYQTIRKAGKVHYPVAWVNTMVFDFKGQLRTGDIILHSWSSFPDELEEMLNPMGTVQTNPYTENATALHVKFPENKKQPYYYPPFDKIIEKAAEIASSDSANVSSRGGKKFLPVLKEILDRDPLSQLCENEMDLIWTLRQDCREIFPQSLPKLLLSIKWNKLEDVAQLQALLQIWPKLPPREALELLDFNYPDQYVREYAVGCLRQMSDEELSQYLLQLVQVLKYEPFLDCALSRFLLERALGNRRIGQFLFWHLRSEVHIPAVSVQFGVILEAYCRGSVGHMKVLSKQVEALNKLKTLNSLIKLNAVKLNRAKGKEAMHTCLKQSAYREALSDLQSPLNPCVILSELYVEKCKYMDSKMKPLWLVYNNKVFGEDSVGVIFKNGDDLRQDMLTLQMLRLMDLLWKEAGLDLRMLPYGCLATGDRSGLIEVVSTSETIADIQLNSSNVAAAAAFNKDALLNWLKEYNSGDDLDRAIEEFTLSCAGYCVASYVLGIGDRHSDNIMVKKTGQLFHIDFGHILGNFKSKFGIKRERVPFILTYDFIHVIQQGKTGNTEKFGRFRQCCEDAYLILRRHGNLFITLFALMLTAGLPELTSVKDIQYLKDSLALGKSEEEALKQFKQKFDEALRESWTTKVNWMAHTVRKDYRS
p110β/p85α, sequence (P27986 whole entry partner): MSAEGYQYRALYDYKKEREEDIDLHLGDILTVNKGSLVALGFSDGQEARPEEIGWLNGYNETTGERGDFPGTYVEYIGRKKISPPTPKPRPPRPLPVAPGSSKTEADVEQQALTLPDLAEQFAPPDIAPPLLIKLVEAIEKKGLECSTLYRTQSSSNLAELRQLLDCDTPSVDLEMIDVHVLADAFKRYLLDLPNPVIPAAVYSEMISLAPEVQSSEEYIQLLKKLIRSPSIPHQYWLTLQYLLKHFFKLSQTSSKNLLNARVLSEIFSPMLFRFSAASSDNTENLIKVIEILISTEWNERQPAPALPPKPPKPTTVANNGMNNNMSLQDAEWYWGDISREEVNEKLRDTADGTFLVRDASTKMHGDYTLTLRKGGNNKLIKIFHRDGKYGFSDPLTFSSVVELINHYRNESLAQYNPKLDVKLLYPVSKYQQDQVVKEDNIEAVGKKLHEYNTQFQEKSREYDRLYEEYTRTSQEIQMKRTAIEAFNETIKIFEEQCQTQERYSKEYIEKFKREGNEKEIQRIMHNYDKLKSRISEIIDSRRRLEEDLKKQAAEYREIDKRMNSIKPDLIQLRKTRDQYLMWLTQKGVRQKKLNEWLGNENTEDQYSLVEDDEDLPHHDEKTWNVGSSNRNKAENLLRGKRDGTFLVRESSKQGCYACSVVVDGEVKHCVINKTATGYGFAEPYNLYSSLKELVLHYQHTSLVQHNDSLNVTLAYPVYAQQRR
p110α/p85α, sequence (P42336 whole entry): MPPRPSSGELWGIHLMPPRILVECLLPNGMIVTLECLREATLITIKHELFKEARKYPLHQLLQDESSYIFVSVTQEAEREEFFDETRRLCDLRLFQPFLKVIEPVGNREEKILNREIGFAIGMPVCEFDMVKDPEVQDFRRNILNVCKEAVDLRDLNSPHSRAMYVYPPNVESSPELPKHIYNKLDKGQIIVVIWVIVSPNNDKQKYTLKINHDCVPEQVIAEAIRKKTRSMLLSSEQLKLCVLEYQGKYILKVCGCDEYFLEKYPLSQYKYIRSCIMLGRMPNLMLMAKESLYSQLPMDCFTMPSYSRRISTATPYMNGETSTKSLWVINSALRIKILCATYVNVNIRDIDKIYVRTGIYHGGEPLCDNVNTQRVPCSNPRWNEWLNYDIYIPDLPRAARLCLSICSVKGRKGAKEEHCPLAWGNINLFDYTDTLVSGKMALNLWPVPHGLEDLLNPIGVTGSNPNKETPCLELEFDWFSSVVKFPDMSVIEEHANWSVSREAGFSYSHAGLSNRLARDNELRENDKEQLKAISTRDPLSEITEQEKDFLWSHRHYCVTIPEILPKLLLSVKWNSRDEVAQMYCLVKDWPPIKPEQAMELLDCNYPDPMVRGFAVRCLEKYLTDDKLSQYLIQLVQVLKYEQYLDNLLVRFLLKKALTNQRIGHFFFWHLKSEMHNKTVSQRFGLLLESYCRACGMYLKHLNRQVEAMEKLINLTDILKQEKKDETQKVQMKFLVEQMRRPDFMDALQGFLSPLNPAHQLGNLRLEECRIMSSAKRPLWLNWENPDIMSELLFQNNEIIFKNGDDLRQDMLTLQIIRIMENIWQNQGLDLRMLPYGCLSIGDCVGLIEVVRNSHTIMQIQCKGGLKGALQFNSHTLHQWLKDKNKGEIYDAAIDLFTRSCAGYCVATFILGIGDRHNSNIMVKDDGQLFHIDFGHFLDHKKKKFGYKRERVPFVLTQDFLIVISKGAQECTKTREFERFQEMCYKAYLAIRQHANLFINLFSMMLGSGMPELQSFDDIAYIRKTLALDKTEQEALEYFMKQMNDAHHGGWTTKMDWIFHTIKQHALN
p110α/p85α, sequence (P27986 whole entry partner): as the sequence (P27986 whole entry partner) above

- IC50 ([1]; read-out: PI3K α IC50): < 1000 nM
- IC50 ([2]; read-out: PI3K β IC50): < 1000 nM
- IC50 ([3]; read-out: PI3K γ IC50): < 10000 nM
SMILES: Nc1nc2cc(-c3ccc4ncc(N5CCOCC5)n4n3)ccc2o1 [compound 57]

- IC50 ([1]; read-out: PI3K α In Vitro IC50): < 1000 nM
- IC50 ([2]; read-out: PI3K β In Vitro IC50): < 10000 nM
SMILES: CN1CC(n2cnc3ccc(-c4ccc5oc(N)nc5c4)cc3c2=O)C1 [compound 528]

- IC50 ([1]; read-out: PI3K α IC50): < 1000 nM
- IC50 ([2]; read-out: PI3K β IC50): < 1000 nM
- IC50 ([3]; read-out: PI3K γ IC50): < 1000 nM
SMILES: Nc1nc2ccc(-c3ccc4ncc(C(=O)N5CCOCC5)n4c3)cc2o1 [compound 124]

- IC50 [1, 4]: < 1000 nM
- IC50 [2, 5]: < 10000 nM
- IC50 [3, 6]: < 1000 nM
SMILES: Nc1nc2cc(-c3ccn4ncc(C(=O)N5CCOCC5)c4c3)ccc2o1 [compound 347]

- IC50 ([1]; read-out: PI3K α IC50): < 1000 nM
- IC50 ([2]; read-out: PI3K β IC50): < 100 nM
- IC50 ([3]; read-out: PI3K γ IC50): < 10000 nM
SMILES: CN1CCN(c2cnc3ccc(-c4ccc5sc(N)nc5c4)cc3n2)CC1 [compound 127]

- IC50 ([1]; read-out: PI3K α IC50): < 10000 nM
- IC50 ([2]; read-out: PI3K β IC50): < 10000 nM
SMILES: CN1CCN(C(=O)c2cnc3ccc(-c4ccc5nc(N)sc5c4)cn23)CC1 [compound 146]

- IC50 ([1]; read-out: PI3K α IC50): < 1000 nM
- IC50 ([2]; read-out: PI3K β IC50): < 1000 nM
SMILES: CC1CN(C(=O)c2cnc3ccc(-c4ccc5oc(N)nc5c4)cn23)CCN1 (centres unmarked) [compound 164]

- IC50 ([1]; read-out: PI3K α IC50): < 1000 nM
- IC50 ([2]; read-out: PI3K β IC50): < 10000 nM
SMILES: CCN1CCC(n2cnc3ccc(-c4ccc5oc(N)nc5c4)cc3c2=O)CC1 [compound 73]

- IC50 ([1]; read-out: PI3K α In Vitro IC50): < 1000 nM
- IC50 ([3]; read-out: PI3K γ In Vitro IC50): < 10000 nM
SMILES: Cc1cc(-c2ccc3oc(N)nc3c2)cn2c(C(=O)N3CCOCC3)cnc12 [compound 448]

- IC50 ([1]; read-out: PI3K α In Vitro IC50): < 100 nM
- IC50 ([2]; read-out: PI3K β In Vitro IC50): < 10000 nM
- IC50 ([3]; read-out: PI3K γ In Vitro IC50): < 1000 nM
SMILES: C[C@@H]1COCCN1C(=O)c1cnc2ccc(-c3ccc4oc(N)nc4c3)cn12 [compound 495]

- IC50 ([1]; read-out: PI3K α IC50): < 1000 nM
- IC50 ([2]; read-out: PI3K β IC50): < 10000 nM
- IC50 ([3]; read-out: PI3K γ IC50): < 10000 nM
SMILES: Nc1nc2cc(-c3ccc4ncc(C(=O)N5CCCCC5)n4c3)ccc2o1 [compound 196]

- IC50 ([1]; read-out: PI3K α IC50): < 10000 nM
- IC50 ([3]; read-out: PI3K γ IC50): < 10000 nM
SMILES: Nc1nc2cc(-c3c[nH]c4nccc(-c5ccncc5)c34)ccc2o1 [compound 25]

- IC50 ([1]; read-out: PI3K α IC50): < 1000 nM
- IC50 ([2]; read-out: PI3K β IC50): < 10000 nM
- IC50 ([3]; read-out: PI3K γ IC50): < 10000 nM
SMILES: CN(CCN1CCOCC1)c1cnc2ccc(-c3ccc4oc(N)nc4c3)cc2n1 [compound 166]

- IC50 [1, 4]: < 100 nM
- IC50 [2, 5]: < 1000 nM
SMILES: Nc1nc2cc(-c3ccc4ncc(C(=O)N5CCC(N)CC5)n4c3)ccc2o1 [compound 204]

- IC50 ([1]; read-out: PI3K α IC50): < 10000 nM
- IC50 ([3]; read-out: PI3K γ IC50): < 10000 nM
SMILES: CN1CCN(C(=O)c2cnc3ccc(-c4ccc5oc(N)nc5c4)nn23)CC1 [compound 104]

- IC50 ([1]; read-out: PI3K α IC50): < 10000 nM
- IC50 ([3]; read-out: PI3K γ IC50): < 10000 nM
SMILES: Nc1noc2ccc(-c3ccc4nccc(-c5ccncc5)c4c3)cc12 [compound 18]

- IC50 [1, 4]: < 1000 nM
- IC50 [3, 6]: < 1000 nM
SMILES: Nc1nc2cc(-c3ccc4ncn(C5CC5)c(=O)c4c3)ccc2o1 [compound 254]

- IC50 [1, 4]: < 1000 nM
- IC50 [3, 6]: < 10000 nM
SMILES: NC(=O)[C@H]1CCCN1C(=O)c1cnc2ccc(-c3ccc4oc(N)nc4c3)cn12 [compound 260]

- IC50 [1, 4]: < 100 nM
- IC50 [3, 6]: < 100 nM
SMILES: Nc1nc2cc(-c3ccc4ncc(N5CCN(CC(F)(F)F)CC5)nc4c3)ccc2o1 [compound 395]

- IC50 ([1]; read-out: PI3K α In Vitro IC50): < 1000 nM
- IC50 ([3]; read-out: PI3K γ In Vitro IC50): < 10000 nM
SMILES: Nc1nc2cc(-c3ccc4ncc(C(=O)N5CCC(F)(F)CC5)n4c3)ccc2o1 [compound 501]

- IC50 [1, 4]: < 10000 nM
- IC50 [2, 5]: < 1000 nM
SMILES: Cc1cc2oc(N)nc2cc1-c1ccc2ncc(N3CCN[C@@H](C)C3)nc2c1 [compound 351]

- IC50 ([1]; read-out: PI3K α IC50): < 100 nM
- IC50 ([3]; read-out: PI3K γ IC50): < 1000 nM
SMILES: Nc1nc2ccc(-c3ccc4ncc(N5CCOCC5)nc4c3)cc2s1 [compound 114]

- IC50 [2, 5]: < 10000 nM
- IC50 [3, 6]: < 10000 nM
SMILES: Nc1cn2cc(-c3ccc4nc(N)oc4c3)ccc2n1 [compound 247]

- IC50 ([1]; read-out: PI3K α In Vitro IC50): < 10000 nM
- IC50 ([3]; read-out: PI3K γ In Vitro IC50): < 10000 nM
SMILES: COc1ccc(-c2ccc3ncc(C(=O)N4CCOCC4)n3c2)cc1NS(=O)(=O)c1ccccc1 [compound 455]

- IC50 ([1]; read-out: PI3K α In Vitro IC50): < 1000 nM
- IC50 ([3]; read-out: PI3K γ In Vitro IC50): < 10000 nM
SMILES: Nc1nc2cc(-c3ccc4ncc(C(=O)N5CCC6(C5)OCCO6)n4c3)ccc2o1 [compound 499]

- IC50 ([1]; read-out: PI3K α IC50): < 100 nM
- IC50 ([3]; read-out: PI3K γ IC50): < 100 nM
SMILES: Cc1ccc(-c2cnc3ccc(-c4ccc5oc(N)nc5c4)cc3n2)cn1 [compound 194]

- IC50 [1, 4]: < 100 nM
- IC50 [3, 6]: < 10000 nM
SMILES: CC(C)n1cnc2ccc(-c3ccc4oc(N)nc4c3)cc2c1=O [compound 206]

- IC50 ([1]; read-out: PI3K α IC50): < 100 nM
- IC50 ([3]; read-out: PI3K γ IC50): < 100 nM
SMILES: Nc1nc2cc(-c3ccc4ncc(N5CCS(=O)(=O)CC5)nc4c3)ccc2o1 [compound 98]

- IC50 [1, 4]: < 1000 nM
- IC50 [2, 5]: < 10000 nM
SMILES: Nc1nc2cc(-c3ccc4ncc(N5CC(N6CCOCC6)C5)nc4c3)c(Cl)cc2o1 [compound 371]

- IC50 ([1]; read-out: PI3K α In Vitro IC50): < 10000 nM
- IC50 ([3]; read-out: PI3K γ In Vitro IC50): < 10000 nM
SMILES: O=C(c1cnc2ccc(-c3cccc(NS(=O)(=O)c4ccccc4)c3)cn12)N1CCOCC1 [compound 453]

- IC50 ([1]; read-out: PI3K α IC50): < 1000 nM
- IC50 ([3]; read-out: PI3K γ IC50): < 10000 nM
SMILES: Nc1nc2cc(-c3ccc4ncc(C(=O)N5CCS(=O)(=O)CC5)n4c3)ccc2o1 [compound 107]

- IC50 [1, 4]: < 1000 nM
- IC50 [2, 5]: < 1000 nM
SMILES: C[C@H]1CN(c2cnc3ccc(-c4ccc5sc(N)nc5c4)cc3n2)CCN1 [compound 307]
